ChEMBL document CHEMBL1146452, “Saponins from the flower buds of Buddleja officinalis” (J Nat Prod, 2004)

Test system: HL-60
Assay: Cytotoxicity against human HL60 cells by MTT assay
Type: functional, cell-based

| Structure (SMILES) | IC50 |
| --- | --- |
| C[C@@H]1O[C@@H](O[C@H]2[C@H](O)[C@@H](O)[C@H](O[C@H]3[C@@H](O)[C@@H](C)O[C@@H](O[C@H]4CC[C@@]5(C)[C@@H](CC[C@]6(C)[C@@H]5C=CC5=C7CC(C)(C)CC[C@]7(CO)[C@@H](O)C[C@]56C)[C@]4(C)CO)[C@@H]3O[C@@H]3O[C@H](CO)[C@@H](O)[C@H](O)[C@H]3O)O[C@@H]2CO)[C@H](O)[C@H](O)[C@H]1O [MIMENGOSIDE C] | 23.2 µM |
| C[C@H]1O[C@@H](O[C@H]2CC[C@@]3(C)[C@@H](CC[C@]4(C)[C@@H]3C=CC3=C5CC(C)(C)CC[C@]5(CO)[C@@H](O)C[C@]34C)[C@]2(C)CO)[C@H](O)[C@@H](O[C@@H]2O[C@H](CO)[C@@H](O[C@@H]3OC[C@@H](O)[C@H](O)[C@H]3O)[C@H](O)[C@H]2O)[C@H]1O [MIMENGOSIDE D] | 26.7 µM |
| C[C@@H]1O[C@@H](O[C@H]2[C@H](O)[C@@H](O)[C@H](O[C@H]3[C@@H](O)[C@@H](C)O[C@@H](O[C@H]4CC[C@]5(C)C6=CC=C7[C@@H]8CC(C)(C)CC[C@]8(CO)[C@@H](O)C[C@@]7(C)[C@]6(C)CC[C@H]5[C@]4(C)CO)[C@@H]3O[C@@H]3O[C@H](CO)[C@@H](O)[C@H](O)[C@H]3O)O[C@@H]2CO)[C@H](O)[C@H](O)[C@H]1O [MIMENGOSIDE E] | 16.8 µM |
| C[C@H]1O[C@@H](O[C@H]2CC[C@]3(C)C4=CC=C5[C@@H]6CC(C)(C)CC[C@]6(CO)[C@@H](O)C[C@@]5(C)[C@]4(C)CC[C@H]3[C@]2(C)CO)[C@H](O)[C@@H](O[C@@H]2O[C@H](CO)[C@@H](O[C@@H]3OC[C@@H](O)[C@H](O)[C@H]3O)[C@H](O)[C@H]2O)[C@H]1O [MIMENGOSIDE F] | 22.7 µM |
